Experimental data reported in US20250186463A1, “ABIRATERONE DECANOATE PRODRUGS AND USE IN THERAPY” (PROPELLA THERAPEUTICS, INC., priority 2022, published 2025).

How the values were obtained:
serum testosterone = test: Phase 1/2a open-label study of i.m. abiraterone decanoate depot in advanced prostate cancer: serum testosterone; format: in vivo, human; details: for serum testosterone reduction from baseline: day 168
Method: This is a Phase 1/2a, Open-label, Multicenter Study of Intramuscular Abiraterone Decanoate Depot in Patients with Advanced Prostate Cancer.
Formulations and dosing regimen: The formulation used in the study (abiraterone decanoate for intramuscular [i.m.] injection) is a solution formulation of abiraterone decanoate at a concentration of 180 mg/mL and will be provided as a 10 mL vial containing 990 mg of abiraterone decanoate in 5.5 mL of solution. See further details of the formulations in Example 2 (for each milliliter: Abiraterone Decanoate, about 180 mg/mL; Benzyl Alcohol, about 100 mg/mL; Benzyl Benzoate, about 200 mg/mL; and Corn oil, q.s. to 1 mL). Abiraterone Decanoate will be administered as an i.m. injection every 84 days (±3 days). Dose escalation will proceed with a modified Fibonacci sequence. Based on emerging data, intermediate doses may be evaluated.
Study Design: This is a Phase 1/2a, Open-label, Multicenter Study of Intramuscular Abiraterone Decanoate Depot in Patients with Advanced Prostate Cancer. In Phase 1, all patients will receive i.m. Abiraterone Decanoate depot in 84-day treatment cycles combined with daily oral prednisone or dexamethasone. In Phase 2a, patients will be randomized 1:1 and treated with i.m. Abiraterone Decanoate depot in 84-day treatment cycles in combination with dexamethasone (Arm A) or abiraterone acetate daily+prednisone (Arm B). In both Phases, patients will undergo scheduled periodic assessments of serum testosterone levels. Participants may continue treatment until they meet any discontinuation criteria outlined in the protocol.
Phase 1—Dose Escalation: Eligible patients with metastatic castration-sensitive prostate cancer (mCSPC) and patients with metastatic castration-resistant prostate cancer (mCRPC) will be enrolled. The initial dose of Abiraterone Decanoate to be administered is based on findings from completed non-human primate toxicology and pharmacology studies; dose escalation will proceed in a modified Fibonacci sequence. A Safety Review Committee (SRC) will be established to review available cohort safety data, and pharmacokinetic and pharmacodynamic findings (particularly testosterone suppression) to recommend a decision on dose escalation including whether intermediate doses should be explored.
Pharmacodynamic Analysis: Determination of Prostate Specific Antigen (PSA), serum testosterone, dehydroepiandrosterone (DHEA), dehydroepiandrosterone sulfate (DHEA-S), androstenedione, dihydrotestosterone (DHT), progesterone, cortisol, adrenocorticotropic hormone (ACTH), corticosterone, 11-dexoycorticosterone (11-DOC) and 11-deoxycortisol.
Based on the available data, the recommended dose for Phase 2 is about 1260 mg abiraterone decanoate once every three months (12 weeks). All cohorts 1 and 2 in this clinical study were treated with prednisone, 5 mg orally once or twice daily; and all cohorts 3-5 were treated with dexamethasone, 0.5 mg orally once daily. The results shown herein for these cohorts should be understood accordingly.
The median baseline T level, calculated from mean of screening and Day 1 of Cycle 1 pre-dose samples, was 7.45 ng/dL.

lymph node lesions = test: Follow-up analysis and post-study PET/CT scan (Patient 1); format: in vivo, human; details: Patient 1, 180 mg, CSPC; enzalutamide started after study
Method: Patient 1. This patient is in cohort 1, which was administered 180 mg of abiraterone decanoate. This patient is […], with CSPC, with a Gleason score ≤6, who entered the study with left common iliac and femoral lymph node involvement and measurable PSA. The patient received degarelix (March thru May 2021) and leuprolide (starting June 2021). Abiraterone decanoate was injected to the patient on Jul. […] On Sep. 24, 2021, this patient started enzalutamide (Xtandi) treatment.

CCCCCCCCCC(=O)O[C@H]1CC[C@@]2(C)C(=CC[C@@H]3[C@@H]2CC[C@]2(C)C(c4cccnc4)=CC[C@@H]32)C1 [abiraterone decanoate]
Serum Testosterone (% CFB) (serum testosterone; Cohort 3, 720 mg i.m., Study Day 112): −94% | Serum Testosterone (% CFB) (serum testosterone; Cohort 3, 720 mg i.m., Study Day 140): −88% | Serum Testosterone (% CFB) (serum testosterone; Cohort 3, 720 mg i.m., Study Day 168): −80% | Serum Testosterone (% CFB) (serum testosterone; Cohort 3, 720 mg i.m., Study Day 196): −93% | Serum Testosterone (% CFB) (serum testosterone; Cohort 4, 1260 mg i.m., Study Day 1 (baseline)): 0% | Serum Testosterone (% CFB) (serum testosterone; Cohort 4, 1260 mg i.m., Study Day 2): −51% | Serum Testosterone (% CFB) (serum testosterone; Cohort 4, 1260 mg i.m., Study Day 3): −65% | Serum Testosterone (% CFB) (serum testosterone; Cohort 4, 1260 mg i.m., Study Day 5): −69% | Serum Testosterone (% CFB) (serum testosterone; Cohort 4, 1260 mg i.m., Study Day 7): −79% | Serum Testosterone (% CFB) (serum testosterone; Cohort 4, 1260 mg i.m., Study Day 10): −79% | Serum Testosterone (% CFB) (serum testosterone; Cohort 4, 1260 mg i.m., Study Day 14): −80% | Serum Testosterone (% CFB) (serum testosterone; Cohort 4, 1260 mg i.m., Study Day 21): −88% | Serum Testosterone (% CFB) (serum testosterone; Cohort 4, 1260 mg i.m., Study Day 28): −89% | Serum Testosterone (% CFB) (serum testosterone; Cohort 4, 1260 mg i.m., Study Day 42): −90% | Serum Testosterone (% CFB) (serum testosterone; Cohort 4, 1260 mg i.m., Study Day 56): −89% | Serum Testosterone (% CFB) (serum testosterone; Cohort 4, 1260 mg i.m., Study Day 70): −80% | Serum Testosterone (% CFB) (serum testosterone; Cohort 4, 1260 mg i.m., Study Day 77): −87% | Serum Testosterone (% CFB) (serum testosterone; Cohort 4, 1260 mg i.m., Study Day 84): −83% | Serum Testosterone (% CFB) (serum testosterone; Cohort 4, 1260 mg i.m., Study Day 112): −93% | Serum Testosterone (% CFB) (serum testosterone; Cohort 4, 1260 mg i.m., Study Day 140): −89% | Serum Testosterone (% CFB) (serum testosterone; Cohort 4, 1260 mg i.m., Study Day 168): −86% | Serum Testosterone (% CFB) (serum testosterone; Cohort 4, 1260 mg i.m., Study Day 196): −97% | Serum Testosterone (% CFB) (serum testosterone; Cohort 5, 1800 mg i.m., Study Day 1 (baseline)): 0% | Serum Testosterone (% CFB) (serum testosterone; Cohort 5, 1800 mg i.m., Study Day 2): −41% | Serum Testosterone (% CFB) (serum testosterone; Cohort 5, 1800 mg i.m., Study Day 3): −46% | Serum Testosterone (% CFB) (serum testosterone; Cohort 5, 1800 mg i.m., Study Day 5): −62% | Serum Testosterone (% CFB) (serum testosterone; Cohort 5, 1800 mg i.m., Study Day 7): −76% | Serum Testosterone (% CFB) (serum testosterone; Cohort 5, 1800 mg i.m., Study Day 10): −79% | Serum Testosterone (% CFB) (serum testosterone; Cohort 5, 1800 mg i.m., Study Day 14): −85% | Serum Testosterone (% CFB) (serum testosterone; Cohort 5, 1800 mg i.m., Study Day 21): −88% | Serum Testosterone (% CFB) (serum testosterone; Cohort 5, 1800 mg i.m., Study Day 28): −88% | Serum Testosterone (% CFB) (serum testosterone; Cohort 5, 1800 mg i.m., Study Day 42): −93% | Serum Testosterone (% CFB) (serum testosterone; Cohort 5, 1800 mg i.m., Study Day 56): −79% | Serum Testosterone (% CFB) (serum testosterone; Cohort 5, 1800 mg i.m., Study Day 70): −87% | Serum Testosterone (% CFB) (serum testosterone; Cohort 5, 1800 mg i.m., Study Day 77): −88% | Serum Testosterone (% CFB) (serum testosterone; Cohort 5, 1800 mg i.m., Study Day 84): −88% | Serum Testosterone (% CFB) (serum testosterone; Cohort 5, 1800 mg i.m., Study Day 112): −83% | Serum Testosterone (% CFB) (serum testosterone; Cohort 5, 1800 mg i.m., Study Day 140): −96% | Serum Testosterone (% CFB) (serum testosterone; Cohort 5, 1800 mg i.m., Study Day 168): −95% | Serum Testosterone (% CFB) (serum testosterone; Cohort 5, 1800 mg i.m., Study Day 196): −98% | decline in testosterone (serum testosterone; Patient 1, cohort 1, 180 mg, treatment days 21-56): 59-61% | androgen suppression (serum testosterone; Patient 2, cohort 2, 360 mg, progressed after Xtandi, FIG. 6): sustained androgen suppression | serum testosterone reduction from baseline (serum testosterone; cohort 3 (720 mg)): 80% | serum testosterone reduction from baseline (serum testosterone; cohort 4 (1260 mg)): 86% | serum testosterone reduction from baseline (serum testosterone; cohort 5 (1800 mg)): up to 95% | patients with a 90% reduction in testosterone levels compared to baseline or values reduced to ≤1 ng/dL (serum testosterone; patients dosed at 720 mg and above, day 28): 13 out of 16 | lymph node lesions on post-study PET/CT scan (lymph node lesions): complete resolution of prior lymph node lesions
